The experiment deals with SlitOR5. In words: Single-sensillum recordings on Drosophila at1 olfactory neurons expressing SlitOR5. Type of experiment: cell-based, Spodoptera littoralis. As to conditions: for significance of response versus solvent alone: n=7, Kruskal-Wallis ANOVA with Dunn's post-hoc test. As to the method:
SlitOR5 can be heterologously expressed in vivo in an organism, for example Drosophila melanogaster, using transgenesis (e.g. the Gal4-UAS system in D. melanogaster). SlitOR5 can be expressed in a large part of the endogenous olfactory sensory neurons (OSNs) of the organism (for instance using the ORco promotor) or in a given subset of the OSN population. The modified responses of the antenna or of the targeted OSNs are then recorded using, respectively, electroantennography (EAG) and single sensillum recording (SSR). Some D. melanogaster mutant lines may be used to replace a native Drosophila OR with SlitOR5, such as the ab3A mutant line which allows for expression of SlitOR5 in ORNs usually expressing DmelOR22a (Hallem et al., Cell 2004, 117(7):965-979), and the DmelOr67dGAL4 mutant knock-in line, which allows for expression of SlitOR5 in place of DmelOR67d, in the unique OSN of the atl Drosophila sensilla (Kurtovic et al. Nature 2007, 446(7135):542-546). The candidate agent activity is measured as the antenna depolarization (EAG) or the number of action potential (SSR) generated by stimulation of an air flow containing the candidate agent (typically from 0.1 μg to 100 μg of the candidate agent loaded in the stimulation cartridge). Depolarization and action potential number are compared, respectively, to depolarization and action potential number generated by the agent solvent alone.
The transformant UAS-SlitOR5 balanced fly line was generated by BestGene Inc. (Chino Hills, Calif., USA), using the PhiC31 integrase system. Briefly, recombinant pUAST.attB-SlitOR5 plasmids were injected into embryos of a D. melanogaster line containing an attP insertion site within the second chromosome (genotype y1 M{vas-int.Dm}ZH-2A w*; M{3×P3-RFP.attP′}ZH-51C), leading to non-random integration. To drive expression of SlitOR5 in neurons housed in atl sensilla, the transformant UAS-SlitOR5 line was crossed to a line carrying the mutant knock-in allele Or67d^GAL4 (kindly provided by Dr. Barry Dickson, IMP, Vienna, Austria) to generate a double homozygous line w;UAS-SlitOr5;Or67d^GAL4. Flies were reared on standard cornmeal-yeast-agar medium and kept in a climate- and light-controlled environment (25° C., 12:12 light:dark cycle). The presence of the UAS-SlitO5 transgene was verified by PCR on genomic DNA extracted from two flies, and the expression of SlitOR5 in fly antennae was verified by RT-PCR on total RNA extracted from >100 pairs of antennae.
The response spectrum of SlitOR5 was tested by means of single-sensillum recordings on flies expressing the SlitOR5 transgene in atl neurons, instead of the endogenous receptor DmelOR67d. Two- to 10-day-old male flies were restrained in a plastic pipette tip with only the head protruding from the narrow end. The pipette tip was fixed with dental wax on a microscope glass slide with the ventral side of the fly facing upward. Then, the antenna was gently placed on a piece of glass slide and maintained by placing a glass capillary between the 2nd and 3rd antennal segments. Afterwards, the slides were placed under a light microscope (BX51WI, Olympus, Tokyo, Japan) equipped with a 100× magnification objective. Desiccation of the flies was avoided thanks to a constant 1.5 L·min^−1 flux of charcoal-filtered and humidified air, delivered through a glass tube of a 7 mm diameter, which terminated ca. 1.5 cm from the antenna.
Stimulation cartridges were built by placing a 1 cm^2 filter paper in the large opening end of a Pasteur pipette and dropping 10 μl of an odorant solution onto the paper before closing the pipette with a 1 mL plastic pipette tip. A screening panel of 26 pheromone compounds (see Table 1 for detail) were used at a 1 μg/μl dilution in hexane (10 μg deposited on the filter paper). Pipettes with filter papers containing 10 μL of solvent were used as controls. […]

[1] abbreviates: response spectrum screen, 10 μg loaded in the stimulus cartridge.

`CC/C=C/C=C\CCCCCCCCOC(C)=O` [Z9,E11-14:OAc, (Z,E)-9,11-tetradecadienyl acetate]: the “response of at1 neurons (firing rate), dose-response” value worked out at 15 spikes·s^−1 (dose 1 μg loaded on the stimulus cartridge, n=5) and 43 spikes·s^−1 (dose 10 μg loaded on the stimulus cartridge, n=5). The “mean net response (firing rate) of SlitOR5-expressing neurons” value (response spectrum screen, 10 μg loaded in the stimulus cartridge, 500 ms air pulse, n=7, w;UAS-SlitOr5;Or67d^GAL4 flies) worked out at 75 spikes·s^−1. Also, under setting [1], the “significance of response versus solvent alone” value is reported as “significant response”. In addition, the “response of at1 neurons versus solvent alone, dose-response” value (the two lower doses (dose range 0.01 μg to 10 μg), n=5) is recorded as “did not significantly differ”.

For the compound `CC/C=C\C=C/CCCCCCCCOC(C)=O` [Z9,Z11-14:OAc, (Z,Z)-9,11-tetradecadienyl acetate], the “significance of response versus solvent alone” value under setting [1] is “not significant”.

As to `CC/C=C\CCCCCCCCOC(C)=O` [Z9-12:OAc, (Z)-9-dodecenyl acetate], the “significance of response versus solvent alone” value under setting [1] was “not significant”.

`CCCC/C=C\CCCCCCCCOC(C)=O` [Z9-14:OAc, (Z)-9-tetradecenyl acetate]: the “significance of response versus solvent alone” value under setting [1] is listed as “not significant”.
